Laboratory results taken from patent publication US20050220803A1, “Use of an organ-specific self-pathogen for treatment of a non-autoimmune disease of said organ” (Yeda Research and Development Co. Ltd., priority 2002, published 2005).
“Also recorded” adds a separate entry of the source.

Assays:
[1] = test system: experimental autoimmune uveoretinitis (EAU); experiment: Induction of uveitis / EAU by the peptide; assay type: in vivo; details: Lewis rats
[2] = test system: retinal ganglion cells (RGCs); experiment: RGC survival after immunization in the absence of insult; details: for percentage of RGC survival (mean ± SEM) vs PBS-injected controls: immunization without insult
[3] = test system: retinal ganglion cells (RGCs); experiment: Glutamate toxicity: RGC loss after intravitreal L-glutamate injection and immunization; assay type: in vivo; details: Lewis rats
[4] = test system: experimental autoimmune uveoretinitis (EAU); details: cited from earlier work; for uveitogenicity / immunopathogenicity: rat, in vivo
spinal cord = experiment: Recovery from spinal cord contusion (open-field locomotor score); assay type: in vivo; details: female Lewis rats; contusion at T8; 100 μg in CFA (0.5 mg/ml) within 1 h after contusion
[5] = test system: retinal ganglion cells (RGCs); experiment: Partial optic nerve crush injury: RGC survival after active immunization; assay type: in vivo, rats (SPD, Fisher, Lewis)
[6] = test system: retinal ganglion cells (RGCs); details: glutamate insult or consequences of axonal injury; conditions where R16 protects; cited from earlier work
[7] = Fisher rats, 200 μg peptide in CFA immediately after optic nerve crush
[8] = Fisher rats, 200 μg peptide in CFA immediately after optic nerve crush, PBS control 109±12

With “ADGSSWEGVGVVPVD (ADGSSWEGVGVVPDV) [Peptide R16, immunodominant uveitogenic peptide, amino acids 1177-1191 of bovine IRBP]” the “clinical onset of EAU, day after immunization” value [1] was 10 days, the “peak of inflammation (EAU), day after immunization” value [1] was 14 days and the “percentage of RGC survival (mean ± SEM) vs PBS-injected controls” value ([2]; Fisher rats) was 97±8%. For the same molecule, the “percentage of RGC survival (mean ± SEM) vs PBS-injected controls” value ([2]; Lewis rats, 2 weeks after vaccination) was 83±5%, the “maximal loss of RGCs” value ([2]; non-injured Lewis rats, 2 weeks after vaccination) was about 17% and the “percentage of RGC loss (mean ± SEM) relative to normal retinas” value ([3]; 400 nmol L-glutamate intravitreal, 30 μg peptide in CFA (0.5 mg/ml) immediately after, PBS in CFA control 28±4%) was 14±2%. For the same molecule, the “protection of RGCs from glutamate toxicity” value ([3]; peptide emulsified in CFA at 2.5 mg/ml, compared with PBS in CFA, data not shown) was “not protective and even caused additional neuronal loss”, the “induction of uveitis” value ([4]; Lewis rats, but not SPD or Fisher rats) was “known to cause uveitis in Lewis rats” and the “recovery of motor activity (open-field motor score) vs PBS in CFA” value (spinal cord) was “did not affect spinal cord recovery; also recorded: At no time were any differences observed”. For the same molecule, the “surviving RGCs per square millimeter (mean ± SEM)” value ([5]; Fisher rats, 30 μg in CFA (2.5 mg/ml) immediately after optic nerve crush, PBS control 114±9) was 183±16 per square millimeter, the “surviving RGCs per square millimeter (mean ± SEM)” value ([5]; Fisher rats, 30 μg in CFA one week before crush, booster 30 μg in IFA after injury, PBS control 89±10) was 165±22 per square millimeter and the “surviving RGCs per square millimeter (mean ± SEM)” value ([5]; Lewis rats, 30 μg in CFA (2.5 mg/ml) immediately after optic nerve crush, PBS control 73±10) was 192±8 per square millimeter. The “surviving RGCs per square millimeter (mean ± SEM)” value ([5]; Lewis rats, 30 μg in CFA one week before crush, booster 30 μg in IFA after injury, PBS control 95±22, not statistically significant) was 117±21 per square millimeter, the “maximal benefit after a neuronal insult (surviving RGCs vs PBS)” value ([5]; Lewis rats, 192±8 vs 73±10 surviving RGCs/mm^2) was 263% and the “surviving RGCs per square millimeter (mean ± SEM)” value ([5]; SPD rats, 30 μg in CFA (2.5 mg/ml) immediately after optic nerve crush, PBS control 60±14) was 150±13 per square millimeter.

For “DTALASST [M-8 analog, M-8 in which asparagine at position 309 was replaced by alanine]”, the “uveitogenicity / immunopathogenicity” value [4] is given as “immunogenic, but not immunopathogenic”, the “RGC survival compared with PBS-injected controls” value [5, 7] is given as “Significantly more RGCs” and the “surviving RGCs per square millimeter (mean ± SEM)” value [5, 8] is given as 159±19 per square millimeter.

For DTNLASST [Peptide M-8], the “uveitogenicity / immunopathogenicity” value [4] is given as “uveitogenic”, the “RGC survival compared with PBS-injected controls” value [5, 7] is given as “Significantly more RGCs” and the “surviving RGCs per square millimeter (mean ± SEM)” value [5, 8] is given as 153±10 per square millimeter.

For “TSSEAATE [G-8 analog, G-8 in which valine at position 351 was replaced by alanine]”, the “uveitogenicity / immunopathogenicity” value [4] is given as “immunogenic, but not immunopathogenic”, the “RGC survival compared with PBS-injected controls” value ([5]; Fisher rats, 500 μg peptide in CFA immediately after optic nerve crush) is given as “Significantly more RGCs survived” and the “surviving RGCs per square millimeter (mean ± SEM)” value ([5]; Fisher rats, 500 μg peptide in CFA immediately after optic nerve crush, PBS control 90±11) is given as 175±15 per square millimeter.

For TSSEVATE [Peptide G-8], the “uveitogenicity / immunopathogenicity” value [4] is given as “uveitogenic”, the “RGC survival compared with PBS-injected controls” value [5, 7] is given as “Significantly more RGCs” and the “surviving RGCs per square millimeter (mean ± SEM)” value [5, 8] is given as 159±5 per square millimeter.

B1: MBP: myelin basic protein, a myelin antigen (protein, UniProt P02688 2-195, looked up)
Myelin basic protein: ASQKRPSQRHGSKYLATASTMDHARHGFLPRHRDTGILDSIGRFFSGDRGAPKRGSGKVPWLKQSRSPLPSHARSRPGLCHMYKDSHTRTTHYGSLPQKSQRTQDENPVVHFFKNIVTPRTPPPSQGKGRGLSLSRFSWGAEGQKPGFGYGGRASDYKSAHKGFKGAYDAQGTLSKIFKLGGRDSRSGSPMARR
In the case of B1, the “protective effect on RGCs by vaccination” value [6] is given as “no such protective effect”.
